Our source for the TGI values is PubChem BioAssay (NCI).

Structures are written as SMILES.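 Growth conditions: 96-well plates. Treatment: test compound, 48 hours, 5 concentrations. Analysis: linear interpolation between bracketing concentrations; unreached endpoints set to highest concentration. Definition used: TGI = concentration required for complete inhibition of growth.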

Some test systems named below: M14 melanoma; KM12 colon; SK-MEL-28 melanoma; SN12C renal; U251 CNS; RPMI-8226 leukemia; SK-MEL-2 melanoma; IGROV1 ovarian; OVCAR-8 ovarian; 786-0 renal; OVCAR-5 ovarian; RXF 393 renal; HCC-2998 colon; SF-539 CNS; EKVX NSCLC; UACC-62 melanoma; HCT-15 colon.
What all share (assay): NCI tumour cell line growth inhibition, 48 h

For the compound `CCOc1ccc(NC(=O)C2=C(C)NC(C)=C(C(=O)Nc3ccc(OCC)cc3)C2c2ccc(O)c(OC)c2)cc1`, the TGI in the experiment with M14 melanoma, in the experiment on KM12 colon, in the experiment with SK-MEL-28 melanoma, in the experiment with SN12C renal, in the experiment on U251 CNS and with RPMI-8226 leukemia was greater than 100 µM throughout. Moreover, the TGI in the experiment on SK-MEL-2 melanoma, in the experiment with IGROV1 ovarian, in the experiment on OVCAR-8 ovarian, in the experiment with 786-0 renal, with OVCAR-5 ovarian and in the experiment on RXF 393 renal was greater than 100 µM in each case. The figures for the TGI in the experiment on HCC-2998 colon, in the experiment on SF-539 CNS and in the experiment with EKVX NSCLC were 76.1 µM, 83.6 µM and greater than 100 µM, respectively.

With `CCCOC(=O)C1CCC(=O)N1C(=O)C(C)Cl` (configuration not stated), the TGI in the experiment on M14 melanoma, in the experiment on KM12 colon, in the experiment with SK-MEL-28 melanoma, with SN12C renal, with U251 CNS and in the experiment with RPMI-8226 leukemia was greater than 100 µM throughout. Also, the TGI in the experiment with SK-MEL-2 melanoma, in the experiment with UACC-62 melanoma, in the experiment on IGROV1 ovarian, in the experiment on OVCAR-8 ovarian, with HCT-15 colon and in the experiment with 786-0 renal was greater than 100 µM in each case. Moreover, the TGI in the experiment on OVCAR-5 ovarian, in the experiment with HCC-2998 colon and with EKVX NSCLC was greater than 100 µM in each case.

For the compound `N#CC(C(=O)/C(=N/NC(=O)c1ccccc1O)C(C#N)c1ccccc1)c1ccccc1` (configuration not stated), the TGI in the experiment with M14 melanoma, in the experiment on KM12 colon, in the experiment on SK-MEL-28 melanoma, in the experiment with SN12C renal, in the experiment on U251 CNS and in the experiment on RPMI-8226 leukemia was greater than 100 µM each time. The TGI in the experiment with SK-MEL-2 melanoma, in the experiment on UACC-62 melanoma, with IGROV1 ovarian, in the experiment with OVCAR-8 ovarian, in the experiment with HCT-15 colon and with 786-0 renal was greater than 100 µM each time. In addition, the TGI in the experiment on RXF 393 renal, with HCC-2998 colon, in the experiment with SF-539 CNS and in the experiment with EKVX NSCLC was greater than 100 µM throughout.

Regarding `CN(C)CCC(O)(c1ccccc1)C(O)(CCN(C)C)c1ccccc1` (configuration not stated), the TGI with M14 melanoma is 32.8 µM; with KM12 colon, greater than 100 µM; in the experiment on SK-MEL-28 melanoma, greater than 100 µM; with SN12C renal, greater than 100 µM; in the experiment on U251 CNS, greater than 100 µM; in the experiment on RPMI-8226 leukemia, greater than 100 µM. Moreover, the TGI with SK-MEL-2 melanoma, in the experiment with UACC-62 melanoma, in the experiment on IGROV1 ovarian, in the experiment with OVCAR-8 ovarian, in the experiment on HCT-15 colon and in the experiment on 786-0 renal was greater than 100 µM throughout. Besides, the TGI in the experiment with OVCAR-5 ovarian, with HCC-2998 colon and with EKVX NSCLC was greater than 100 µM each time.

With `C#CCNC(=O)NCCCC(NC(C)=O)C(=O)NCc1ccccc1` (configuration not stated), the TGI with M14 melanoma, in the experiment with KM12 colon, with SK-MEL-28 melanoma, with SN12C renal, with U251 CNS and with RPMI-8226 leukemia was greater than 100 µM each time. Further, the TGI with UACC-62 melanoma, in the experiment with IGROV1 ovarian, in the experiment on OVCAR-8 ovarian, in the experiment on HCT-15 colon, in the experiment on 786-0 renal and with OVCAR-5 ovarian was greater than 100 µM throughout. The TGI with RXF 393 renal, with HCC-2998 colon, in the experiment on SF-539 CNS and in the experiment with EKVX NSCLC was greater than 100 µM throughout.

Consider `COC(=O)C1CCC(Nc2ccc(C)cc2C)=N1` (configuration not stated), for which the TGI in the experiment with M14 melanoma, with KM12 colon, in the experiment on SK-MEL-28 melanoma, in the experiment on SN12C renal, in the experiment with U251 CNS and in the experiment with RPMI-8226 leukemia was greater than 100 µM each time. The TGI in the experiment with SK-MEL-2 melanoma, in the experiment on UACC-62 melanoma, in the experiment with IGROV1 ovarian, in the experiment with OVCAR-8 ovarian, in the experiment with HCT-15 colon and with 786-0 renal was greater than 100 µM throughout. Besides, the TGI in the experiment with OVCAR-5 ovarian, with HCC-2998 colon and with EKVX NSCLC was greater than 100 µM each time.

In the case of `N#CC(/C(=N/NC(=O)C(=O)NN)C(=O)Nc1nc([N+](=O)[O-])cs1)c1ccc(Cl)cc1` (configuration not stated), the TGI in the experiment on M14 melanoma, with KM12 colon, with SK-MEL-28 melanoma, in the experiment with SN12C renal, in the experiment with U251 CNS and in the experiment with RPMI-8226 leukemia was greater than 100 µM each time. In addition, the TGI in the experiment on SK-MEL-2 melanoma, in the experiment on UACC-62 melanoma, in the experiment with IGROV1 ovarian, with OVCAR-8 ovarian, with 786-0 renal and in the experiment on OVCAR-5 ovarian was greater than 100 µM throughout. Also, the TGI with RXF 393 renal, with HCC-2998 colon and with EKVX NSCLC was greater than 100 µM throughout.

For the compound `COc1ccc2c(c1)C(=O)N1CCOC1C2C(=O)O` (configuration not stated), the TGI with M14 melanoma, in the experiment on KM12 colon, with SK-MEL-28 melanoma, with SN12C renal, with U251 CNS and with RPMI-8226 leukemia was greater than 100 µM in each case. Further, the TGI in the experiment with UACC-62 melanoma, in the experiment with IGROV1 ovarian, in the experiment on OVCAR-8 ovarian, in the experiment with HCT-15 colon, with 786-0 renal and with OVCAR-5 ovarian was greater than 100 µM in each case. In addition, the TGI in the experiment with HCC-2998 colon, with SF-539 CNS and in the experiment on EKVX NSCLC was greater than 100 µM each time.
